# Target: T1, mSTING (wild type CT26 cells) (Mus musculus, UniProt Q3TBT3)
# T1 construct: endogenous in cells; host or cells: CT26 (parent line, and the endogenous protein in R232.hSTING.CT26)
# Assay: Western blot of pSTING and pIRF3 in parent CT26 cells
# Assay type: cell-based
# Conditions: immunoblot (S10 Fig)
# Protocol: 5 x 10^5 cells were seeded in 24-well plates in 500 μl growth medium and stimulated with novel compounds at 10μM. After 2 hours of treatment cells were harvested by centrifugation and cell pellets were lysed in RIPA buffer (20mM Tris-Cl, 150mM NaCl, 0.5mM EDTA, 1% NP40, 0.05% SDS) containing 1x phosphatase inhibitor cocktail 3 (Sigma) and 1x protease inhibitor (Roche) to extract the soluble fraction of protein. 10 μg of extracted protein was electrophoresed in 10% SDS-PAGE gels and transferred onto Immobilon-P membranes (Millipore). […] Anti-rabbit HRP label secondary antibody (Abcam) and Clarity Max™ western ECL substrate (Biorad—cat# 1705062) were used for visualization of bands using a BioRad XRS plus imager.
# T1 sequence (Q3TBT3 whole entry): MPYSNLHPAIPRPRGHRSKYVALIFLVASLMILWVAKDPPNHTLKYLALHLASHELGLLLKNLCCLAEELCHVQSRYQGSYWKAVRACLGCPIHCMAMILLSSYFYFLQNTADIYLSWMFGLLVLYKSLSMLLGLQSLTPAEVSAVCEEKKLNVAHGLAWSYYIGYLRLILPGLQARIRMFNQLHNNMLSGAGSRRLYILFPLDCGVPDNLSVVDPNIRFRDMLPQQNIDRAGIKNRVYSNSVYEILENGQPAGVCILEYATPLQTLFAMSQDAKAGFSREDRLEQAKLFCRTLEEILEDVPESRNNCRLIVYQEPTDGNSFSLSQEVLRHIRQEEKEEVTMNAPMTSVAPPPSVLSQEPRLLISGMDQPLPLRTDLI
smiles,measurement,value
"O=C(NCc1ccco1)c1ccc2c(c1)N(Cc1c(F)cccc1Cl)C(=O)CS2 [Compound G10, 4-(2-Chloro-6-fluorobenzyl)-N-(furan-2-ylmethyl)-3-oxo-3,4-dihydro-2H-benzo[b][1,4]thiazine-6-carboxamide]","phosphorylation of mSTING or mIRF3, parent CT26 line",did not lead to phosphorylation

# — paper PMC7482845, “G10 is a direct activator of human STING” (PLoS ONE, 2020)
